Measured values as given in patent US4202967A, “N,N-pentamethylene derivatives of daunomycin and adriamycin” (SRI International, priority 1978, dated 1980).
pIC50: −log10 of the molar value. Structures can show the parent of a compound that is named as a salt. Where two headings read alike, the source gives them in different places.

How the values were obtained:
[1] = test system: P388 lymphocytic leukemia; test: Antitumor activity in mice (P388, qd 1-9); assay type: in vivo; conditions: ip; for T/C (P388, qd 1-9): at optimal dose, days 1-9, ratio of average survival times treated/untreated, active if T/C ≥ 125; for Opt. Dose (P388, qd 1-9): days 1-9
Experimental: (§1) As indicated above, the compounds of the present invention have improved antitumor activity. This is evidenced by the data given below. In one operation, conducted in accordance with Protocol 1200 set forth in Cancer Chemotherapy Reports, National Cancer Institute, Vol. 3, No. 2, Part 3, September 1972, healthy mice were inoculated i.p. with Limphocytic Leukemia P-388 ascitic fluid. The inoculated mice were then treated i.p. for the succeeding 9 day period with varying amounts of the test chemicals of Example 2 while others of the mice were similarly inoculated with adrimycin hydrochloride and with daunomycin hydrochloride, the dosage pattern being set forth in the table given below. The average survival times of the treated mice was then determined, as was that of the control mice, which were inoculated with the ascitic fluid but given no treatment with the test chemicals. Presented in the following table under the T/C column headings are data obtained by dividing the survival time of the treated mice with that of the control mice, the quotient so obtained being multiplied by 100.
(§2) ^b Assays arranged through Drug Research and Development Program,
(§3) Division of Cancer Treatment, National Cancer Institute. BDF or CDF mice
(§4) are injected ip with […] P388 lymphocytic leukemia cells on Day 0
(§5) and are treated ip on Days 1-9 or days 5, 9, 13 with the specified drug
(§6) dose. For detailed protocols see R. I. Geran, N. H. Greenberg, M. M.
(§7) MacDonald, A. M. Schumacher, and B. J. Abbott, Cancer Chemother. Rep.,
(§8) ^c Ratio of average survival times of treated mice to untreated
(§9) controls in percent. The average survival time of untreated controls is
(§10) approximately 11 days. Activity is defined as values of T/C ≥ 120
(§11) in the qd 5, 9, 13 protocol and T/C ≥ 125 in the qd 1-9 protocol.

[2] = test system: P388 lymphocytic leukemia; test: Antitumor activity in mice (P388, qd 5,9,13); assay type: in vivo; conditions: ip; for T/C (P388, qd 5,9,13): at optimal dose, days 5, 9, 13, ratio of average survival times treated/untreated, active if T/C ≥ 120; for Opt. Dose (P388, qd 5,9,13): days 5, 9, 13
Experimental: as §1, §2, §3, §4, §5, §6, §7, §8, §9, §10, §11

[3] = test system: RNA synthesis in L1210 cells; test: Inhibition of RNA synthesis (incorporation of tritiated 3H-uridine) in cultured L1210 cells; assay type: cell-based; conditions: for Nucleic Acid Syn Inhibn, ED50 ratio DNA/RNA: ED50 DNA divided by ED50 RNA; for pIC50: Mus musculus
Experimental: (§12) Also presented in the table are the results of in vitro tests using cultured L1210 cells in which the activity of each chemical enumerated in the following table is presented in relation to its potency as an inhibitor of nucleic acid synthesis. Data for daunomycin and adriamycin are also included in the table for the sake of comparison. More specifically, the inhibition of the synthesis of DNA and RNA by each compound was measured as a function of its activity in inhibiting incorporation of tritiated ^3 H-thymidine or ^3 H-uridine into DNA and RNA, respectively. ED50 represents the concentration, in micromolar units, which inhibits incorporation of 50% of tritiated ^3 H-thymidine or ^3 H-uridine into the DNA and RNA of the test cells.
(§13) ^a ΔTm and Ed50 values were determined by the method of G.
(§14) Tong, W. W. Lee, D. R. Black, and D. W. Henry, J. Med. Chem., 19, 395
(§15) (1976), except that the drugs were initially dissolved in a volume of DMS
(§16) the assay medium. This modification greatly aided solubilization and did
(§17) not affect assay results, according to extensive control experiments.

[4] = ΔTm; assay type: binding; conditions: drugs initially dissolved in DMSO; final DMSO 5%
Experimental: as §13, §14, §15, §16, §17

[5] = test system: DNA synthesis in L1210 cells; test: Inhibition of DNA synthesis (incorporation of tritiated 3H-thymidine) in cultured L1210 cells; assay type: cell-based; conditions: Mus musculus
Experimental: as §12, §13, §14, §15, §16, §17

[6] = L1210, read-out: Nucleic Acid Syn Inhibn, ED50 RNA
[7] = L1210, read-out: Nucleic Acid Syn Inhibn, ED50 DNA

SMILES	T/C (P388, qd 1-9) [1] [%]	Opt. Dose (P388, qd 1-9) [1] [mg/kg]	T/C (P388, qd 5,9,13) [2] [%]	Opt. Dose (P388, qd 5,9,13) [2] [mg/kg]	Nucleic Acid Syn Inhibn, ED50 ratio DNA/RNA ([3]; L1210 cells)	pIC50 [3, 6]	ΔTm [4] [°C]	pIC50 [5, 7]	pIC50 ([3]; L1210 cells, 3H-uridine incorporation, 50% inhibition, final DMSO 1%, read-out: Nucleic Acid Syn Inhibn, ED50 RNA)	pIC50 ([5]; L1210 cells, 3H-thymidine incorporation, 50% inhibition, final DMSO 1%, read-out: Nucleic Acid Syn Inhibn, ED50 DNA)
COc1cccc2c1C(=O)c1c(O)c3c(c(O)c1C2=O)C[C@@](O)(C(=O)CO)C[C@@H]3O[C@H]1C[C@H](N)[C@H](O)[C@H](C)O1 [Adriamycin hydrochloride]	197	0.78	159	8	2.6	6.24	13.4	5.82		
COc1cccc2c1C(=O)c1c(O)c3c(c(O)c1C2=O)C[C@@](O)(C(C)=O)C[C@@H]3O[C@H]1C[C@H](N)[C@H](O)[C@H](C)O1 [Daunomycin hydrochloride]	160	0.78	132	8		6.48		6.18		
COc1cccc2c1C(=O)c1c(O)c3c(c(O)c1C2=O)C[C@@](O)(C(O)CO)C[C@@H]3O[C@H]1C[C@H](N2CCCCC2)[C@H](O)[C@H](C)O1 (stereo partly drawn) [N,N-Pentamethylene-13-dihydroadriamycin]	157	1.56	143	18	7.2	7.00	12.5	6.14		
COc1cccc2c1C(=O)c1c(O)c3c(c(O)c1C2=O)C[C@@](O)(C(=O)CO)C[C@@H]3O[C@H]1C[C@H](N2CCCCC2)[C@H](O)[C@H](C)O1 [N,N-Pentamethyleneadriamycin]	190	3.13	155	9.4	17.5		15.4		7.40	6.15
